Molecules are shown by their SMILES. The source made the active and inactive calls.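 How the source made its calls: active means survival repeatably raised 25 points above the stressor-only control level of 35%, about 60% survival; inactive means the rest.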

The experiment deals with differentiated CSM14.1, thapsigargin death rescue, ATPlite, 24 h. As to the kind of experiment: rescue of neuronal CSM14.1 from thapsigargin, SAR follow-up, cell-based, differentiated CSM14.1, ATP luminescence (AID 1347). As to conditions: at 25 µM; active compounds read high.
As for `COc1ccc(C2CC(=O)C3=C(C2)Nc2ccccc2NC3c2cccc(C(F)(F)F)c2)cc1OC` (stereo unspecified), the survival was 65%. Then `COc1ccc(C2CC(=O)C3=C(C2)Nc2ccccc2NC3c2cccc(Oc3ccccc3)c2)cc1OC` (stereo unspecified), with 66%; and `CCCOc1ccc(C2Nc3ccccc3NC3=C2C(=O)CC(c2ccc(OC)c(OC)c2)C3)cc1` (stereo unspecified), with 68%; and `O=C1CC(c2ccccc2)CC2=C1C(c1c(F)cccc1Cl)Nc1ccccc1N2` (stereo unspecified), with 10% (inactive). To `CCOc1cc(C2Nc3ccccc3NC3=C2C(=O)CC(c2ccc(OC)cc2)C3)cc(Cl)c1O` (stereo unspecified) belongs 20% (inactive). To `COc1ccc(C2CC(=O)C3=C(C2)Nc2ccccc2NC3c2cc(C)ccc2C)cc1` (stereo unspecified) belongs 69%. For `CSc1ccc(C2Nc3ccccc3NC3=C2C(=O)CC(c2ccccc2)C3)cc1` (stereo unspecified), the survival is 65%. In the case of `CC1(C)CC(=O)C2=C(C1)Nc1ccccc1NC2c1ccc(-c2ccccc2)cc1` (stereo unspecified), the survival is 47%. Then `CCOc1cccc(C2Nc3ccccc3NC3=C2C(=O)CC(c2ccc(OC)cc2)C3)c1` (stereo unspecified), with 64%; and `COc1ccc(C2CC(=O)C3=C(C2)Nc2ccccc2NC3c2cccc(Br)c2)cc1OC` (stereo unspecified), with 63%.

Take `COc1ccc(C2CC(=O)C3=C(C2)Nc2ccccc2NC3c2ccccc2C(F)(F)F)cc1OC` (stereo unspecified): the survival was 68%.
